Measurements reported in US20080194585A1, “Fungicidal Pyrazine Derivatives” (priority 2005, published 2008).
Marks after values point to notes of the source that are not given here.

Experiments:
Septoria tritici = experiment: Test J: wheat leaf blotch, preventive spray on wheat seedlings; assay type: in vivo
Excerpt: A dash (-) indicates no test results.

[1] = test system: Colletotrichum orbiculare; experiment: Test B: cucumber Colletotrichum anthracnose, preventive spray on cucumber seedlings
Rhizoctonia oryzae = experiment: Test G: turf brown patch, preventive spray on creeping bent grass seedlings
Method: (the causal agent of turf brown patch) and incubated in a saturated atmosphere at 27° C. for 24 h, and then moved to a growth chamber at 27° C. for 5 days, after which disease ratings were made.

[2] = test system: Erysiphe graminis f. sp. tritici; experiment: Test L: wheat powdery mildew, preventive spray on wheat seedlings
fusarium graminearium = experiment: Test I: wheat head scab, preventive spray on wheat seedlings
Method: (the causal agent of wheat head scab) and incubated in a saturated atmosphere at 20° C. for 72 h, and then moved to a growth chamber at 22° C. for 5 days, after which disease ratings were made.

Plasmopara viticola = experiment: Test D: grape downy mildew, spray after inoculation of grape seedlings; assay type: in vivo
Excerpt: Upon removal, disease ratings were made. […] A dash (-) indicates no test results.

Botrytis cinerea = experiment: Test E: tomato botrytis, preventive spray on tomato seedlings
[3] = test system: Puccinia recondita f. sp. tritici; experiment: Test K: wheat leaf rust, preventive spray on wheat seedlings
Sclerotinia sclerotiorum = experiment: Test C: cucumber white mold, preventive spray on cucumber seedlings
Phytophthora infestans = experiment: whole plant or invertebrate; assay type: in vivo
Septoria nodorum = experiment: Test H: wheat glum blotch, preventive spray on wheat seedlings
Method: (the causal agent of wheat glum blotch) and incubated in a saturated atmosphere at 20° C. for 48 h, and then moved to a growth chamber at 22° C. for 5 days, after which disease ratings were made.

Pythium aphanidermatum = experiment: Test A: bluegrass pythium blight, preventive spray on bluegrass seedlings

Row | Structure (SMILES) | Test J disease control rating (Septoria tritici; 40 ppm (*)) | Test B disease control rating ([1]; 40 ppm (*)) | Test G disease control rating (Rhizoctonia oryzae; 40 ppm (*)) | Test L disease control rating ([2]; 40 ppm (*)) | Test E disease control rating (Botrytis cinerea; 40 ppm (*)) | Test K disease control rating ([3]; 40 ppm (*)) | Test H disease control rating (Septoria nodorum; 40 ppm (*)) | Test I disease control rating (fusarium graminearium; 40 ppm (*)) | Test D disease control rating (Plasmopara viticola; 40 ppm (*)) | Test C disease control rating (Sclerotinia sclerotiorum; 40 ppm (*)) | Test F disease control rating (Phytophthora infestans; 40 ppm (*)) | Test A disease control rating (Pythium aphanidermatum; 40 ppm (*)) | other results
1 | CC(C)Cn1c(-c2ccc(Cl)cc2Cl)c(Cl)nc(-n2cncn2)c1=O [compound 118] |  |  |  |  |  |  |  |  |  |  |  |  | Test J disease control rating (Septoria tritici; 200 ppm): 100%; Test B disease control rating ([1]; 200 ppm): 96%; Test G disease control rating (Rhizoctonia oryzae; 200 ppm): 71%; Test L disease control rating ([2]; 200 ppm): 0%; Test I disease control rating (fusarium graminearium; 200 ppm): 81%; Test D disease control rating (Plasmopara viticola; 200 ppm): 0%; Test E disease control rating (Botrytis cinerea; 200 ppm): 99%; Test K disease control rating ([3]; 200 ppm): 91%; Test C disease control rating (Sclerotinia sclerotiorum; 200 ppm): 98%; Test F disease control rating (Phytophthora infestans; 200 ppm): 16%; Test H disease control rating (Septoria nodorum; 200 ppm): 92%; Test A disease control rating (Pythium aphanidermatum; 200 ppm): 0%
2 | CC(C)Cn1c(-c2ccc3ccccc3c2)c(Cl)nc(-n2cncn2)c1=O [compound 119] | 68* % | 0* % | 0* % | 0* % | 0* % | 0* % | 0* % |  |  |  |  |  | Test I disease control rating (fusarium graminearium; 200 ppm): 76%; Test D disease control rating (Plasmopara viticola; 200 ppm): 0%; Test C disease control rating (Sclerotinia sclerotiorum; 200 ppm): 0%; Test F disease control rating (Phytophthora infestans; 200 ppm): 0%; Test A disease control rating (Pythium aphanidermatum; 200 ppm): 0%
3 | CC(C)Cn1c(-c2c(Cl)ccc(Cl)c2Cl)c(Cl)nc(-n2cncn2)c1=O [compound 120] | 91* % | 0* % | 0* % | 0* % | 99* % | 55* % | 64* % |  |  |  |  |  | Test I disease control rating (fusarium graminearium; 200 ppm): 86%; Test D disease control rating (Plasmopara viticola; 200 ppm): 0%; Test C disease control rating (Sclerotinia sclerotiorum; 200 ppm): 93%; Test F disease control rating (Phytophthora infestans; 200 ppm): 0%; Test A disease control rating (Pythium aphanidermatum; 200 ppm): 0%
4 | COC(=O)Cn1c(-c2c(F)cccc2F)c(Cl)nc(-n2cccn2)c1=O [compound 122] | 7* % | 0* % | 16* % | 0* % | 49* % | 28* % | 0* % | 0* % | 58* % | 0* % | 0* % | 0* % | 
5 | COC(=O)Cn1c(-c2c(F)cccc2F)c(Cl)nc(-n2cncn2)c1=O [compound 123] | 19* % | 0* % | 0* % | 0* % | 0* % | 0* % | 0* % | 0* % | 0* % | 0* % | 0* % | 0* % | 
6 | O=c1c(-n2cccn2)nc(Cl)c(-c2c(F)cccc2F)n1CCCl [compound 124] | 100* % | 0* % | 21* % | 0* % | 99* % | 100* % | 100* % | 0* % | 0* % | 0* % | 0* % | 0* % | 
7 | O=c1c(-n2cncn2)nc(Cl)c(-c2c(F)cccc2F)n1CCCl [compound 125] | 71* % | 0* % | 0* % | 0* % | 0* % | 55* % | 0* % | 0* % | 0* % | 0* % | 0* % | 0* % | 
8 | CS(=O)(=O)CCn1c(-c2c(F)cccc2F)c(Cl)nc(-n2cccn2)c1=O [compound 126] | 19* % | 0* % | 0* % | 0* % | 0* % | 0* % | 0* % | 0* % | 0* % | 0* % | 0* % | 0* % | 
9 | CS(=O)(=O)CCn1c(-c2c(F)cccc2F)c(Cl)nc(-n2cncn2)c1=O [compound 127] |  | 0* % | 0* % | 0* % | 0* % | 0* % | 0* % | 0* % | 0* % | 0* % | 0* % | 0* % | Test J disease control rating (Septoria tritici; 200 ppm): 16%
10 | CC(C)Cn1c(Cc2ccccc2)c(Cl)nc(-n2cncn2)c1=O [compound 128] | 0* % | 0* % | 0* % | 0* % | 0* % | 0* % | 0* % | 0* % | 0* % | 0* % | 0* % | 0* % | 
11 | CC(C)Cn1c(-c2cccc3ccccc23)c(Cl)nc(-n2cncn2)c1=O [compound 129] | 19* % | 0* % | 0* % | 0* % | 0* % | 0* % | 0* % | 0* % | 0* % | 0* % | 0* % | 0* % | 
12 | CC(C)Cn1c(Cc2ccccc2)c(Cl)nc(-n2cccn2)c1=O [compound 130] | 16* % | 0* % | 0* % | 0* % | 0* % | 0* % | 0* % | 0* % | 0* % | 0* % | 0* % | 0* % | 
13 | CC(C)Cn1c(-c2cccc3ccccc23)c(Cl)nc(-n2cccn2)c1=O [compound 131] | 52* % | 0* % | 0* % | 0* % | 0* % | 0* % | 0* % | 0* % | 0* % | 0* % | 0* % | 0* % | 
14 | CC(C)Cn1c(C(C)c2ccccc2)c(Cl)nc(-n2cccn2)c1=O (stereo not drawn) [compound 132] | 9* % | 0* % | 0* % | 0* % | 0* % | 0* % | 0* % | 0* % | 0* % | 0* % | 0* % | 0* % | 
15 | CC(C)Cn1c(C(C)c2ccccc2)c(Cl)nc(-n2cncn2)c1=O (stereo not drawn) [compound 133] | 23* % | 0* % | 0* % | 0* % | 0* % | 0* % | 0* % | 0* % | 0* % | 0* % | 0* % | 0* % | 
16 | CC(C)Cn1c(-c2cc(F)cc(F)c2F)c(Cl)nc(-n2cccn2)c1=O [compound 139] | 100* % | 0* % | 91* % | 99* % | 100* % | 99* % | 97* % | 0* % | 0* % | 95* % | 0* % | 0* % | 
